Test results from the supplement of paper PMC10307832.

compound: CN1CCN(CC1)C2=CC(=C(C=C2)NC3=NC=C4C(=N3)N(C5=CC=CC=C5C(=O)N4C)C)OC [XMD8-85] + CC(C)C[C@H](NC(=O)[C@H](Cc1ccccc1)NC(=O)c1cnccn1)B(O)O [Bortezomib] (partner 0.002 µM); assay: relative viability (nuclei count vs DMSO), 5 days (fraction); higher = more cells survive; conditions: first compound 8 µM
Method in brief: (§1)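 Relative viability equals treated-well nuclei counts divided by vehicle-well nuclei counts. Counts came from 4× images of lung cancer cell lines grown in 1536-well plates for 5 days after pin-tool dosing on the day after seeding. Dosing used one drug alone or a fixed anchor-drug dose plus five library-drug doses (not always all listed) in √10 steps, and values are medians of duplicate plates.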

Cell Line	relative viability
NCI-H3122	0.915

compound: CN1CCN(CC1)C2=CC(=C(C=C2)NC3=NC=C4C(=N3)N(C5=CC=CC=C5C(=O)N4C)C)OC [XMD8-85] + Nc1ncn([C@H]2C[C@H](O)[C@@H](CO)O2)c(=O)n1 [Decitabine] (partner 2 µM); assay: as above; conditions: first compound 0.08 µM
Method in brief: as §1

Cell Line	relative viability
LOU-NH91	0.797
LU99A	0.919
LXF-289	0.409
NCI-H23	0.306
NCI-H322M	0.688
NCI-H441	0.256
NCI-H460	0.442
NCI-H596	0.941
NCI-H647	0.43
NCI-H650	0.336
NCI-H661	0.589
NCI-H727	0.867
NCI-H838	0.572
NCI-H1355	0.359
NCI-H1437	0.641
NCI-H1650	0.539
NCI-H1651	0.595
NCI-H1666	0.703
NCI-H1755	0.754
NCI-H1915	0.279
NCI-H1975	0.392
NCI-H1993	0.543
NCI-H2009	0.42
NCI-H2023	0.176
NCI-H2085	0.546
NCI-H2087	0.311
NCI-H2126	0.647
NCI-H2347	0.599
NCI-H2405	0.672
NCI-H3122	0.401

same assay, conditions: first compound 0.253 µM

Cell Line	relative viability
LOU-NH91	0.852
LU99A	0.86
LXF-289	0.371
NCI-H23	0.316
NCI-H322M	0.659
NCI-H441	0.245
NCI-H460	0.506
NCI-H520	0.506
NCI-H596	1.01
NCI-H647	0.357
NCI-H650	0.3
NCI-H661	0.552
NCI-H727	1.04
NCI-H838	0.46
NCI-H1355	0.308
NCI-H1437	0.534

Cell Line	relative viability
NCI-H1650	0.414
NCI-H1651	0.592
NCI-H1666	0.724
NCI-H1734	0.519
NCI-H1755	0.677
NCI-H1915	0.262
NCI-H1975	0.359
NCI-H1993	0.555
NCI-H2009	0.371
NCI-H2023	0.198
NCI-H2085	0.529
NCI-H2087	0.262
NCI-H2126	0.578
NCI-H2347	0.619
NCI-H2405	0.765
NCI-H3122	0.439

same assay, conditions: first compound 0.8 µM

Cell Line	relative viability
LOU-NH91	0.793
LU99A	1.08
LXF-289	0.369
NCI-H23	0.349
NCI-H322M	0.707
NCI-H441	0.256
NCI-H460	0.503
NCI-H520	0.496
NCI-H647	0.417
NCI-H650	0.354
NCI-H661	0.629
NCI-H727	0.84
NCI-H838	0.476
NCI-H1355	0.345
NCI-H1437	0.596
NCI-H1650	0.487
NCI-H1651	0.601
NCI-H1734	0.528
NCI-H1755	0.714
NCI-H1915	0.838
NCI-H1975	0.382
NCI-H1993	0.585
NCI-H2009	0.414
NCI-H2023	0.25
NCI-H2085	0.538
NCI-H2087	0.297
NCI-H2126	0.562
NCI-H2347	0.583
NCI-H2405	0.705
NCI-H3122	0.481

same assay, conditions: first compound 2.53 µM

Cell Line	relative viability
LOU-NH91	0.821
LU99A	0.769
LXF-289	0.423
NCI-H23	0.32
NCI-H322M	0.644
NCI-H441	0.261
NCI-H460	0.566
NCI-H520	0.528
NCI-H596	2
NCI-H647	0.45
NCI-H650	0.309
NCI-H661	0.62
NCI-H727	0.894
NCI-H838	0.449
NCI-H1355	0.355
NCI-H1650	0.374
NCI-H1651	0.67
NCI-H1666	0.692
NCI-H1734	0.591
NCI-H1755	0.764
NCI-H1915	0.563
NCI-H1975	0.328
NCI-H1993	0.561
NCI-H2009	0.417
NCI-H2023	0.244
NCI-H2085	0.535
NCI-H2087	0.32
NCI-H2126	0.57
NCI-H2405	0.854
NCI-H3122	0.507

same assay, conditions: first compound 8 µM

Cell Line	relative viability
LOU-NH91	0.646
LU99A	0.694
LXF-289	0.352
NCI-H23	0.267
NCI-H322M	0.606
NCI-H441	0.205
NCI-H460	0.396
NCI-H520	0.429
NCI-H596	0.873
NCI-H647	0.327
NCI-H650	0.324
NCI-H661	0.553
NCI-H727	0.643
NCI-H838	0.354
NCI-H1355	0.329
NCI-H1437	0.501

Cell Line	relative viability
NCI-H1650	0.371
NCI-H1651	0.506
NCI-H1666	0.68
NCI-H1734	0.464
NCI-H1755	0.724
NCI-H1915	0.253
NCI-H1975	0.35
NCI-H1993	0.57
NCI-H2009	0.255
NCI-H2023	0.227
NCI-H2085	0.517
NCI-H2087	0.195
NCI-H2126	0.562
NCI-H2347	0.531
NCI-H2405	0.75
NCI-H3122	0.543
